According to patent publication US8350079B2, “Treprostinil formulation” (United Therapeutics Corporation, priority 2008, dated 2013):

Columns and labels:
[1] = Stability of anhydrous treprostinil at 25° C. (6-month stability report, lot 01A07002); assay type: physicochemical
Description: II. Stability of Anhydrous Form Versus Monohydrate Form of TREPROSTINIL at 25° C.
1. Stability Report (6-month) for anhydrous lot #01A07002
A 3.34-kg sample of treprostinil diethanolamine salt was dissolved in 40 L of sterile water, 60 L of ethyl acetate and 3.2 L of 3 M HCl were added and the mixture stirred. The layers were separated and the aqueous layer was extracted thrice with 20-L portions of ethyl acetate. The four organic layers were combined, the organic solution washed twice with 20-L portions of sterile water, once with 20 L of brine and dried over 2.97 kg of anhydrous sodium sulfate. The mixture was filtered and the filtrate was concentrated to yield treprostinil as a gummy solid. This solid was transferred to glass drying trays and let air-dry for 93 hours. This solid was then dissolved in 23.4 kg of ethanol, warmed to 48° C. and treated with 23.4 kg of warm (40-50° C.) sterile water. The solution was stirred and then stirring was stopped to allow the treprostinil to slowly crystallize. The resulting white solid was collected by filtration in an Aurora filter, washed with 45 L of a cold (6° C.) 20% ethanol in sterile water solution, the filter moved to a Hepa-filtered Finishing Room and the solid dried under house vacuum for 22.3 hours. The solid was transferred to drying trays and further dried in a vacuum oven at 55 deg. C and 0.26 Torr for 22.7 hours to give 2.63 kg (96.3%) of anhydrous treprostinil (Lot #01A07002) as a white solid.

[2] = Stability tests of treprostinil forms (dimer formation, room temperature stability); assay type: physicochemical
Description: The anhydrous form of treprostinil (TREPROSTINIL) has been previously described, e.g., in J. Org. Chem. 2004, 69, 1890-1902. […] A larger amount of dimers can form at higher temperatures. However, dimer formation is negligible at 5° C. Therefore, anhydrous treprostinil must be refrigerated for storage and transport. In the past, treprostinil had to be refrigerated and shipped with ice packs to maintain low (2° C.-8° C.) temperatures.
The instability of anhydrous treprostinil also imposes challenges to its preparation. To obtain anhydrous treprostinil, wet compound from recrystallization was heated in a vacuum. […] Therefore, heating temperature must be carefully controlled to avoid high heat when drying treprostinil in order to remove all water, otherwise these two dimer impurities will be produced.
Data has been generated to characterize a monohydrate form of treprostinil. […] Treprostinil monohydrate can be stored and shipped with no special handling.

## CCCCC[C@H](O)CC[C@@H]1[C@H]2Cc3cccc(OCC(=O)O)c3C[C@H]2C[C@H]1O [Lot No. 01 A07002 (Anhydrous), 2-((1R,2R,3aS,9aS)-2-hydroxy-1-((S)-3-hydroxyoctyl)-2,3,3a,4,9,9a-hexahydro-1H-cyclopenta[b]naphthalen-5-yloxy)acetic acid]
[1]; 3 months
  HPLC Assay 750W93: 1.2
  HPLC Assay 751W93: 0.9
  HPLC Assay Treprostinil: 98.1%
  Physical examination: White powder
  Water (Karl Fischer): 0.7%
[1]; 6 months
  HPLC Assay 750W93: 1.5
  HPLC Assay 751W93: 1.1
  HPLC Assay Treprostinil: 95.4%
  Physical examination: White powder
  Water (Karl Fischer): 0.8%
[1]; Initial
  HPLC Assay 750W93: 0.2
  HPLC Assay 751W93: 0.3
  HPLC Assay Treprostinil: 99.6%
  Physical examination: White powder
  Water (Karl Fischer): 0.4%
[2]; 5° C.
  Dimer formation: negligible
[2]; 25° C., dimers formed upon standing
  Stability (stability tests): not stable
[2]; solid heated above 50° C. in vacuum drying
  Dimer formation on heating the solid: two dimers of treprostinil formed
